Measured values: patent publication US11273153B2, “MAPK inhibitors” (EverBrilliant Pharma Pty Ltd, priority 2014, dated 2022)
Like-named read-outs stand apart in the source and are kept apart here.

Key:
[1] = biological target: inactive non-phosphorylated p38α MAPK (Homo sapiens (Human), UniProt Q16539); test: Fluorescence polarisation (FP) binding assay, inactive enzyme
Experimental: (§1) A number of compounds were also assessed for the inhibition of p38α MAPK activity (www.kinase-screen.mrc.ac.uk) in which a radioactive (^33P-labelled ATP) filter binding assay was used to directly measure phosphate incorporation. Table 1 summarises the binding affinities of the synthesised compounds to both forms of the enzyme as well as the inhibitory activities against p38α MAPK. By way of enabling a comparison with a non-thiophene compound the biological testing was also carried out for known inhibitor RWJ67657, shown in table 1.
(§2) FP signals were measured with a PHERAstar microplate reader (BMG Labtech) using black, low-binding half-area 96 well plates (Corning). Each binding data point was carried out in duplicate or triplicate. Data were recorded in millipolarisation (mP) units and measured at an excitation wavelength of 485 nm and an emission wavelength of 520 nm. Tris(hydroxymethyl)aminomethane (Tris) assay buffer was used in all binding experiments and consisted of 10 mM Tris, […] potassium chloride, and 3.5 mM 3-((3-cholamidopropyl)dimethylammonium)-1-propanesulfonate (Chaps) at pH 8.0.
(§3) Test compounds were prepared from dimethylsulfoxide stocks (10 mM). […] Plates were incubated at room temperature for 1 hour and FP signals were recorded. For binding experiments to active p38α MAPK, the FP signals were recorded after 2 hours incubation at room temperature. Data is represented as mean±SEM from two to three independent experiments.

[2] = biological target: active phosphorylated p38α MAPK (Homo sapiens (Human), UniProt Q16539); test: Fluorescence polarisation (FP) binding assay, active enzyme
Sequence of active phosphorylated p38α MAPK (Q16539 whole entry): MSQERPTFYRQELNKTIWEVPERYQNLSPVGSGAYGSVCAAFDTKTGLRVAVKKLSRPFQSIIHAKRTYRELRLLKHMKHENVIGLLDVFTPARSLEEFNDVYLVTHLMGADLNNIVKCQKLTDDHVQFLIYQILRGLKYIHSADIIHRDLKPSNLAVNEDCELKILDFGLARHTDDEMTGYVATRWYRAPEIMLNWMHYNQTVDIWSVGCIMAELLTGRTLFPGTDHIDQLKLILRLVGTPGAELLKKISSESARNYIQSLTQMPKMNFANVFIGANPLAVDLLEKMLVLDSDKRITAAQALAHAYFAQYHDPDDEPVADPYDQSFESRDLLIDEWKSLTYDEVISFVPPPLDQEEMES
Experimental: as §1, §2, §3

[3] = biological target: p38α MAPK (Homo sapiens (Human), UniProt Q16539); test: Radioactive (33P-labelled ATP) filter binding assay of p38α MAPK activity; format: biochemical
Sequence of p38α MAPK (Q16539 whole entry): as above
Experimental: as §1

[4] = biological target: p38α MAPK activation (phosphorylation) by MKK6 (Homo sapiens (Human), UniProt Q16539); test: In vitro activation assay (phosphorylation of p38α MAPK by MKK6, western blot); format: biochemical
Sequence of p38α MAPK activation (phosphorylation) by MKK6 (Q16539 whole entry): as above
Experimental: The assay was analysed by immunoblotting using antibodies against pan p38 MAPK and activated (phosphorylated) p38α MAPK. […] The reaction is initiated by the addition of ATP and MKK6 and proceeds for 15 minutes.
The assay was analysed by immunoblotting using antibodies against pan p38 MAPK and phosphorylated p38α MAPK.
The reaction was started by the addition of active MKK6 (5 ng) and ATP (100 μM). After 30 minutes incubation at room temperature, the reaction was stopped with ethylenediaminetetraacetic acid (EDTA) (10 mM). Phosphorylation of p38 MAPK was analysed by Western blotting.
Reaction samples were mixed 1:1 with Laemmli loading buffer, including β-mercaptoethanol (Biorad). Samples were heated at 95° C. for 5 minutes and 80 ng of protein was resolved using sodium dodecyl sulfate polyacrylamide gel electrophoresis (SDS-PAGE) gels (Biorad) at 200 V for 90 minutes. Proteins were transferred (100 V, 1 hour) to a polyvinylidene difluoride (PVDF) membrane (Merck). Membranes were incubated in blocking buffer (5% skim milk in Tris-buffered saline with Tween 20 (TBST), 1 hour, room temperature) and washed in TBST. Membranes were incubated with primary antibodies against total and phosphorylated p38 MAPK (1:1,000, Cell Signaling Technology) overnight at 4° C. Membranes were washed 4×15 minutes in TBST and probed with a secondary anti-mouse antibody at 1:2,000 dilution for 1 hour at room temperature, followed by washing in TBST (4×15 minutes). Signal detection was done with Western Lightning plus-ECL enhanced chemiluminescent substrate (Perkin Elmer) with the ChemiDoc Imaging System (BioRad).

[5] = Table 1, read-out: Ki (μM, mean ± SEM) inactive p38α
[6] = Table 6, read-out: Ki ± SEM (μM) to inactive p38α
[7] = Table 1, read-out: Ki (μM, mean ± SEM) active p38α
[8] = Table 6, read-out: Ki ± SEM (μM) to active p38α
[9] = Table 1, average of two experiments, read-out: IC50 (μM, mean)
[10] = read-out: IC50 (inhibitory activity against p38α MAPK)
[11] = Table 5, read-out: Ki ± SEM (μM) to inactive p38α MAPK
[12] = Table 5, read-out: Ki ± SEM (μM) to active p38α MAPK
[13] = read-out: Ki to active p38α MAPK

Sequence of inactive non-phosphorylated p38α MAPK (Q16539 whole entry): as above

Structure (SMILES) | Ki [1, 5] [µM] | Ki [1, 6] [µM] | Ki [2, 7] [µM] | Ki [2, 8] [µM] | IC50 [3, 9] [µM] | IC50 ([3]; Table 6, read-out: IC50 (mean)) [µM] | IC50 [3, 10] [µM] | binding to p38α MAPK, in words [1] | Ki [1, 11] [µM] | Ki [2, 12] [µM] | Ki [2, 13] [µM] | inhibition of p38α MAPK activation (phosphorylation) ([4]; 10 μM concentration) | Ki ([1]; read-out: Ki to inactive non-phosphorylated p38α MAPK) [µM] | inhibition of p38α MAPK activation (phosphorylation) ([4]; 1 μM concentration)
OCCC#Cc1sc(-c2ccc(F)cc2)c(-c2ccncc2)c1C(O)CCc1ccccc1 (stereo not drawn) [Compound 4.6, 4-(5-(4-Fluorophenyl)-3-(1-hydroxy-3-phenylpropyl)-4-(pyridin-4-yl)thiophen-2-yl)but-3-yn-1-ol] | > 10 | > 10 | 3.85 | 3.9 | 4.72 | 4.72 | 4.72 |  |  |  |  |  |  | 
OC(CCc1ccccc1)c1csc(-c2ccc(F)cc2)c1-c1ccncc1 (stereo not drawn) [Compound 4.17, 1-(5-(4-Fluorophenyl)-4-(pyridin-4-yl)thiophen-3-yl)-3-phenylpropan-1-ol] | 1.9 ± 0.3 | 1.9 ± 0.3 | 0.99 ± 0.09 | 0.99 ± 0.09 | 0.26 | 0.26 | 0.26 |  |  |  |  |  |  | 
Fc1ccc(-c2scc(CCCc3ccccc3)c2-c2ccncc2)cc1 [Compound 4.18, 4-(2-(4-Fluorophenyl)-4-(3-phenylpropyl)thiophen-3-yl)pyridine] | 1.5 ± 0.5 | 1.5 ± 0.5 | 0.72 ± 0.03 | 0.72 ± 0.03 | 0.27 | 0.27 | 0.27 |  |  |  |  |  |  | 
Fc1ccc(-c2scc(C#CCc3ccccc3)c2-c2ccncc2)cc1 [Compound 4.19, 4-(2-(4-Fluorophenyl)-4-(3-phenylprop-1-yn-1-yl)thiophen-3-yl)pyridine] | > 10 | > 10 | 9.44 | 9.4 |  |  |  | complete loss of binding |  |  |  |  |  | 
O=C(CCCO)c1cc(-c2ccncc2)c(-c2ccc(F)cc2)s1 [Compound 5.10, 1-(5-(4-Fluorophenyl)-4-(pyridin-4-yl)thiophen-2-yl)-4-hydroxybutan-1-one] |  | 2.7 ± 0.3 |  | 0.67 ± 0.03 |  |  |  |  | 2.7 ± 0.3 | 0.67 ± 0.03 | 0.67 | inhibition of p38α MAPK activation |  | 
CCOC(=O)c1cc(-c2ccncc2)c(-c2ccc(F)cc2)s1 [Compound 5.11, Ethyl 5-(4-fluorophenyl)-4-(pyridin-4-yl)thiophene-2-carboxylate] |  | 6 ± 1 |  | 2.2 |  |  |  |  | 6 ± 1 | 2.2 |  |  |  | 
CC(=O)c1cc(-c2ccncc2)c(-c2ccc(F)cc2)s1 [Compound 5.15, 1-(5-(4-Fluorophenyl)-4-(pyridin-4-yl)thiophen-2-yl)ethanone] |  | 6.4 ± 0.6 |  | 1.4 |  |  |  |  | 6.4 ± 0.6 | 1.4 |  |  |  | 
O=C(c1ccccc1)c1cc(-c2ccncc2)c(-c2ccc(F)cc2)s1 [Compound 5.16, (5-(4-Fluorophenyl)-4-(pyridin-4-yl)thiophen-2-yl) (phenyl)methanone] |  | 5 ± 2 |  | 2.8 ± 0.1 |  |  |  |  | 5 ± 2 | 2.8 ± 0.1 |  | inhibition of p38α MAPK activation |  | 
O=C(c1ccco1)c1cc(-c2ccncc2)c(-c2ccc(F)cc2)s1 [Compound 5.17, (5-(4-Fluorophenyl)-4-(pyridin-4-yl)thiophen-2-yl) (furan-2-yl)methanone] |  | 5.9 ± 0.7 |  | 2.5 |  |  |  |  | 5.9 ± 0.7 | 2.5 |  |  |  | 
Fc1ccc(-c2sc(-c3ccco3)cc2-c2ccncc2)cc1 [Compound 5.18, 4-(2-(4-Fluorophenyl)-5-(furan-2-yl)thiophen-3-yl)pyridine] |  | > 10 |  | 1.7 |  |  |  |  | > 10 | 1.7 |  |  |  | 
Fc1ccc(-c2sc(-c3c(F)c(F)nc(F)c3F)cc2-c2ccncc2)cc1 [Compound 5.19, 2,3,5,6-Tetrafluoro-4-(5-(4-fluorophenyl)-4-(pyridin-4-yl)thiophen-2-yl)pyridine] |  | 3.01 ± 0.03 |  | 0.8 ± 0.1 |  |  |  |  | 3.01 ± 0.03 | 0.8 ± 0.1 | 0.8 |  |  | 
Nc1nc(F)c(F)c(-c2cc(-c3ccncc3)c(-c3ccc(F)cc3)s2)c1F [Compound 5.20, 3,5,6-Trifluoro-4-(5-(4-fluorophenyl)-4-(pyridin-4-yl)thiophen-2-yl)pyridin-2-amine] |  | 0.66 ± 0.06 |  | 0.21 ± 0.01 |  |  |  |  | 0.66 ± 0.06 | 0.21 ± 0.01 | 0.2 | inhibition of p38α MAPK activation |  | 
Nc1nc(N)c(F)c(-c2cc(-c3ccncc3)c(-c3ccc(F)cc3)s2)c1F [Compound 5.21, 3,5-Difluoro-4-(5-(4-fluorophenyl)-4-(pyridin-4-yl)thiophen-2-yl)pyridine-2,6-diamine] |  | 0.47 ± 0.01 |  | 0.16 ± 0.02 |  |  |  |  | 0.47 ± 0.01 | 0.16 ± 0.02 | 0.16 | inhibition of p38α MAPK activation | 0.47 | significant inhibition
OCCC#Cc1nc(-c2ccc(F)cc2)c(-c2ccncc2)n1CCCc1ccccc1 [RWJ67657, reference compound] | 0.21 ± 0.04 | 0.21 ± 0.04 | 0.013 ± 0.006 | 0.013 ± 0.006 |  |  |  |  | 0.21 ± 0.04 | 0.013 ± 0.006 |  | inhibition of p38α MAPK activation |  | 

Results, then the compound that gave them:

Ki [1, 5] [µM] | Ki [1, 6] [µM] | Ki [2, 7] [µM] | Ki [2, 8] [µM] | IC50 [3, 9] [µM] | IC50 ([3]; Table 6, read-out: IC50 (mean)) [µM] | IC50 [3, 10] [µM] | binding to p38α MAPK, in words [1] | Ki [1, 11] [µM] | Ki [2, 12] [µM] | Ki [2, 13] [µM] | inhibition of p38α MAPK activation (phosphorylation) ([4]; 10 μM concentration) | Ki ([1]; read-out: Ki to inactive non-phosphorylated p38α MAPK) [µM] | inhibition of p38α MAPK activation (phosphorylation) ([4]; 1 μM concentration) | Structure (SMILES)
 | 1.9 ± 0.4 |  | 2.3 |  |  |  |  | 1.9 ± 0.4 | 2.3 |  |  |  |  | Fc1ccc(-c2sc(I)cc2-c2ccncc2)cc1 [Compound 5.1, 4-(2-(4-Fluorophenyl)-5-iodothiophen-3-yl)pyridine]
 | 1.7 ± 0.2 |  | 0.8 ± 0.04 |  |  |  |  | 1.7 ± 0.2 | 0.8 ± 0.04 |  |  |  |  | OCCCC#Cc1cc(-c2ccncc2)c(-c2ccc(F)cc2)s1 [Compound 5.3, 5-(5-(4-Fluorophenyl)-4-(pyridin-4-yl)thiophen-2-yl)pent-4-yn-1-ol]
 | 1.1 ± 0.2 |  | 0.19 ± 0.04 |  |  |  |  | 1.1 ± 0.2 | 0.19 ± 0.04 | 0.19 |  |  |  | NCCC#Cc1cc(-c2ccncc2)c(-c2ccc(F)cc2)s1 [Compound 5.7, 4-(5-(4-Fluorophenyl)-4-(pyridin-4-yl)thiophen-2-yl)but-3-yn-1-amine]
 | 2.2 ± 0.2 |  | 2.5 |  |  |  |  | 2.2 ± 0.2 | 2.5 | 2.5 |  |  |  | Fc1ccc(-c2sc(C#CCCN3CCOCC3)cc2-c2ccncc2)cc1 [Compound 5.8, 4-(4-(5-(4-Fluorophenyl)-4-(pyridin-4-yl)thiophen-2-yl)but-3-yn-1-yl)morpholine]
 | 0.98 ± 0.02 |  | 0.25 ± 0.04 |  |  |  |  | 0.98 ± 0.02 | 0.25 ± 0.04 | 0.25 | inhibition of p38α MAPK activation |  |  | OCCCCc1cc(-c2ccncc2)c(-c2ccc(F)cc2)s1 [Compound 5.9, 4-(5-(4-Fluorophenyl)-4-(pyridin-4-yl)thiophen-2-yl)butan-1-ol]
 | 17 ± 2 |  | 1.4 |  |  |  |  | 17 ± 2 | 1.4 |  |  |  |  | O=C(O)c1cc(-c2ccncc2)c(-c2ccc(F)cc2)s1 [Compound 5.12, 5-(4-Fluorophenyl)-4-(pyridin-4-yl)thiophene-2-carboxylic acid]
 | 6.3 ± 0.4 |  | 0.9 ± 0.1 |  |  |  |  | 6.3 ± 0.4 | 0.9 ± 0.1 |  |  |  |  | O=C(c1cc(-c2ccncc2)c(-c2ccc(F)cc2)s1)N1CCNCC1 [Compound 5.14, (5-(4-Fluorophenyl)-4-(pyridin-4-yl)thiophen-2-yl) (piperazin-1-yl)methanone]
